Biological target: Cell division control protein 42 homolog (Homo sapiens, UniProt P60953)
Assay: Cdc42 activated mutant GTP-binding inhibitors, SAR follow-up, biochemical, bead-based multiplex flow cytometry, additional SAR set (AID 2021)

Chain of Cell division control protein 42 homolog (P60953 whole entry): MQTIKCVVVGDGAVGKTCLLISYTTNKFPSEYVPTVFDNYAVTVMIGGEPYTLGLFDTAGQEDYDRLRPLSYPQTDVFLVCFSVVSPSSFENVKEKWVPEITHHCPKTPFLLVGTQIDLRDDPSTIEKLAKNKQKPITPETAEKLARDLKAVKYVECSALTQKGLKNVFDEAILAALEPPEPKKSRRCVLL

SMILES	EC50 [µM]
O=C1Nc2c(F)cccc2C1=C1Nc2ccccc2C1=O	30
O=C1NC(=O)/C(=C2/C(=O)Nc3ccccc32)N1	5.26
O=C1Nc2ccc(Br)cc2C1=C1Nc2ccccc2C1=O	30
O=C1Nc2ccccc2/C1=C1/Nc2ccccc2C1=O [2-[(3Z)-2-oxo-2,3-dihydro-1H-indol-3-ylidene]-2,3-dihydro-1H-indol-3-one]	30
O=C1N=c2ccc(Br)cc2=C1c1[nH]c2ccccc2c1NO [5-bromanyl-3-[3-(oxidanylamino)-1H-indol-2-yl]indol-2-one]	30
O=C1N=c2c(Br)cccc2=C1c1[nH]c2ccccc2c1NO [7-bromanyl-3-[3-(oxidanylamino)-1H-indol-2-yl]indol-2-one]	55.1
O=C1N=c2c(Cl)cccc2=C1c1[nH]c2ccccc2c1NO [7-chloro-3-[3-(hydroxyamino)-1H-indol-2-yl]-2-indolone]	30
O=C1N=c2c(F)cccc2=C1c1[nH]c2ccccc2c1NO [7-fluoro-3-[3-(hydroxyamino)-1H-indol-2-yl]-2-indolone]	30

The remaining compounds from weak to strong by EC50, led by results:

EC50 [µM]	SMILES
30	O=C1Nc2c(Cl)cccc2C1=C1Nc2ccccc2C1=O
30	O=C1Nc2c(Br)cccc2C1=C1Nc2ccccc2C1=O
30	O=C1N=c2ccccc2=C1c1[nH]c2ccccc2c1NO [3-[3-(hydroxyamino)-1H-indol-2-yl]-2-indolone]
30	O=C1NC(=S)N/C1=C1\C(=O)Nc2ccccc21 [(3Z)-3-(5-oxo-2-sulfanylideneimidazolidin-4-ylidene)-1H-indol-2-one]
